The assay can be described thus: Effect on proliferation of human peripheral blood mononuclear cells (PMBC) at 72 hr using MTT assay. Type of assay: functional. For orientation: Formazan colour is commonly taken as a measure of viable cells.

Here are results for two molecules from ChEMBL document CHEMBL1146811, “Specific inhibition effects of N-pentafluorobenzyl-1-deoxynojirimycin on human CD4+ T cells” (Bioorg Med Chem Lett, 2004).

`OCC1C(O)C(O)C(O)CN1Cc1c(F)c(F)c(F)c(F)c1F` (configuration not stated) had an IC50 of 20.2 µM.
On to `OC[C@H]1NC[C@H](O)[C@@H](O)[C@@H]1O` [DUVOGLUSTAT], for which the half-inhibitory concentration (IC50) amounted to 25.6 µM.

Broadly, the IC50 is the midpoint of a concentration-inhibition curve. Read a high IC50 as weaker potency in that assay.
